The data set is described as follows: solvent given as SMILES.

The values below come from the Deep4Chem optical property database.

Consider `CN(C)c1ccc(/C=C/C=C2\CC/C(=C\c3ccc(N(C)C)cc3)C2=O)cc1`, for which the absorption maximum reads like this: (in C1CCOC1) 479 nm; (in CC#N) 478 nm; (in CC(C)=O) 474 nm; (in CC(C)O) 493 nm; (in CCCCCC) 435 nm; (in CCCCO) 499 nm. Besides, the absorption maximum is, setting by setting: (in CCCCOC(C)=O) 468 nm; (in CCCO) 499 nm; (in CCO) 498 nm; (in CCOC(=O)c1ccccc1) 481 nm; (in CCOC(C)=O) 464 nm; (in CCOCC) 448 nm. Further, the absorption maximum is, setting by setting: (in CN(C)C=O) 486 nm; (in CO) 500 nm; (in CS(C)=O) 496 nm; (in Cc1ccccc1) 475 nm; (in ClC(Cl)(Cl)Cl) 449 nm; (in ClC(Cl)Cl) 486 nm. The compound also came in with an absorption maximum (in ClCCl) of 484 nm; an absorption maximum (in Clc1ccccc1Cl) of 488 nm; an absorption maximum (in S=C=S) of 489 nm; an absorption maximum (in c1ccccc1) of 475 nm; an absorption maximum (in c1ccncc1) of 488 nm.
As to `Fc1ccc2c(c1)sc1nc(-c3ccccc3)sc12`, the absorption maximum (in CS(C)=O) is 330 nm.
`CNC1=C2C=CC=[N+]2[B-](F)(F)n2cccc21`: the absorption maximum was found to be 418.5 nm (in C1CCCCC1); 395.5 nm (in CC(C)=O); 397 nm (in CCO); 398.5 nm (in CCOC(C)=O); 394.5 nm (in CO); 393 nm (in OCC(F)(F)F).
Where the note is “in C1CCOC1”, `O=P1(c2ccccc2)C(c2cccs2)=C(c2cccs2)c2ccccc21` (stereo unspecified) gave an absorption maximum of 368 nm.
Compound `Cc1cc(C)c(B(c2c(C)cc(C)cc2C)c2ccc3ccc4cccc5ccc2c3c45)c(C)c1` returned an absorption maximum (in Cc1ccccc1) of 399 nm.
As to `N#Cc1ccc(/C=C2\N=C(c3ccccc3)OC2=O)cc1`, the absorption maximum (in C1COCCO1) is given as 369 nm.
`c1ccc(-n2c(-c3ccccc3-n3c4ccccc4c4ccccc43)nc3ccccc32)cc1` returned an absorption maximum (in C1CCOC1) of 352 nm.
In the case of `Fc1ccc(-c2nc3n(c2-c2ccncc2)CCS3)cc1`, the absorption maximum was 328 nm (in C1CCCCC1); 328.5 nm (in C1CCOC1); 328.5 nm (in C1COCCO1); 319 nm (in CC#N); 329.5 nm (in CC(C)(C)O); 328 nm (in CC(C)O). The compound also showed an absorption maximum (in CCO) of 325 nm; an absorption maximum (in CCOC(C)=O) of 319 nm; an absorption maximum (in CN(C)C=O) of 326.5 nm; an absorption maximum (in CNC=O) of 325.5 nm; an absorption maximum (in CO) of 322.5 nm; an absorption maximum (in CS(C)=O) of 329 nm. The absorption maximum is 332 nm (in Cc1ccc(C)cc1); 333.5 nm (in Cc1ccccc1); 329 nm (in ClC(Cl)Cl); 326 nm (in ClCCl); 322 nm (in O); 330 nm (in OCCO).
In the case of `CCCCN(CCCC)c1ccc(/C=C/c2ccc(-c3ccc(/C=C/c4ccc(N(CCCC)CCCC)cc4)cc3)cc2)cc1`, the absorption maximum is on record as 412.9 nm (in CS(C)=O) and 399.3 nm (in Cc1ccccc1).
As for `CCCCn1c2ccc(/C=C(\C#N)c3ccc([N+](=O)[O-])cc3)cc2c2cc(Cn3c(-c4ccc5c(c4)c4ccccc4n5CCCC)nc4ccccc43)ccc21`, the absorption maximum (in C1CCOC1) was determined as 410 nm; the absorption maximum (in CC#N) came out at 416 nm; the absorption maximum (in CCO) is listed as 416 nm; the absorption maximum (in CCOC(C)=O) is given as 408 nm; the absorption maximum (in CN(C)C=O) worked out at 423 nm; the absorption maximum (in ClCCl) worked out at 417 nm. The absorption maximum amounted to 434 nm (in O) and 409 nm (in c1ccccc1).
In the case of `CCN(CC)c1ccc(C2=C3C(C)=CC(/C=C/c4ccc(OCCCN=[N+]=[N-])cc4)=[N+]3[B-](F)(F)n3c(C)cc(C)c32)cc1`, the absorption maximum (in CO) is recorded as 570 nm.
Under “in ClCCl”, `CCCCN(CCCC)c1ccc2c(c1)C#CC#Cc1cc(C(F)(F)F)ccc1C#Cc1cc(c3cc1C#Cc1ccc(C(F)(F)F)cc1C#CC#Cc1cc(N(CCCC)CCCC)ccc1C#C3)C#C2` returned an absorption maximum of 474 nm.
`CC1=N/C(=C\c2ccccc2N(C)C)C(=O)N1C`: the absorption maximum by setting is: (in C1CCCCC1) 395 nm; (in C1CCOC1) 395 nm; (in CC#N) 396 nm; (in CO) 398 nm; (in CS(C)=O) 398 nm; (in ClCCl) 396 nm. The same compound yielded an absorption maximum (in O) of 346 nm.
Turning to `O=C1Cc2cc3c(cc2CCCc2ccc(cc2)CCC3)CC(=O)Cc2ccc(c3nsnc23)C1`, the absorption maximum (in C1CCCCC1) is reported as 401 nm, the absorption maximum (in CC#N) stood at 404 nm and the absorption maximum (in ClC(Cl)Cl) is reported as 404 nm.
On to `CCOc1cc(C=C2c3ccccc3-c3ccccc32)c(OCC)cc1C=C1c2ccccc2C=Cc2ccccc21`, for which the absorption maximum (in C1CCOC1) is given as 395 nm.
As to `CC[n+]1c(-c2ccccc2)c2cc(NC(N)=O)ccc2c2ccc(N)cc21`, for the setting “in O”, the absorption maximum is reported as 463 nm.
`CC1=C(/C=C/c2ccccc2)C2=Cc3c(/C=C/c4ccccc4)c(C)c(C)n3[B-](F)(F)[N+]2=C1C` showed an absorption maximum (in CC#N) of 572 nm.
For `CCCN1c2ccc(C3=C4C=CC=[N+]4[B-](F)(F)n4cccc43)cc2Sc2cc(C3=C4C=CC=[N+]4[B-](F)(F)n4cccc43)ccc21`, the absorption maximum (in ClCCl) is 500 nm.
On the same count and under the same terms, the same measure for `Cc1ccc(C2=Nc3cccc4[n+]3[B-](c3ccccc3)(N2)NC(c2ccc(C)cc2)=N4)cc1`: 435 nm.
Under “in C1CCOC1”, `COc1cc2c(cc1-c1ccc(C=O)cc1)Cc1c3c(c4c(c1-2)-c1cc(OC)c(-c2ccc(C=O)cc2)cc1C4)C(=O)N(CCC(C)C)C3=O` registered an absorption maximum of 414 nm.
`CN(C)c1ccc2cc3c(cc2c1)OCCN=C3`: the absorption maximum reads like this: (in C1CCOC1) 353 nm; (in CC#N) 456 nm; (in CC(C)O) 362 nm; (in CCOC(C)=O) 354 nm; (in CN(C)C=O) 362 nm; (in CS(C)=O) 359 nm. Also, the absorption maximum came to 355 nm (in Cc1ccccc1), 450 nm (in ClCCl) and 451 nm (in O).
`CCC1(CC)c2cc(/C=C/c3cc(Br)c(/C=C/c4ccc5c(c4)C(CC)(CC)c4cc(N6c7ccccc7Sc7ccccc76)ccc4-5)cc3Br)ccc2-c2ccc(N3c4ccccc4Sc4ccccc43)cc21`: the absorption maximum is, setting by setting: (in C1CCOC1) 439.91 nm; (in CC#N) 435.81 nm; (in CCCCCC) 433.42 nm; (in Cc1ccccc1) 439.91 nm; (in ClCCl) 426 nm.
In the case of `COc1ccc2oc(-c3cc4cc(OC)ccc4oc3=O)cc2c1`, the absorption maximum stood at 382 nm (in CC#N); 384 nm (in CCOC(C)=O); 389 nm (in CS(C)=O); 388 nm (in Cc1ccccc1); 347 nm (in O).
The compound `COc1ccc2c(c1)CCC1=C(c3ccccc3)C3=C(c4ccc5cccc(O)c5n4)c4c(-c5ccccc5)c5c(n4[B-](F)(F)[N+]3=C12)-c1ccc(OC)cc1CC5` yielded an absorption maximum (in O) of 660 nm.
As to `c1ccc2c3c(ccc2c1)-c1cc2ccccc2c2cccc-3c12`, the absorption maximum (in CCCCCCC) turned out to be 381 nm.
